Experiments:
ACSS2 [1] = target: T1, ACSS2 (Homo sapiens, UniProt Q9NR19); assay: Cellular assay of 14C acetate incorporation into fatty acids (IC50 ACSS2 cellular lipids); assay type: cell-based; conditions: HCT-15 cells
T1 construct: endogenous fatty acid synthesis activity in the human HCT-15 cancer cell line; endogenous in cells; host or cells: HCT-15
Procedure: This protocol describes a cellular assay capable to quantify endogenous fatty acid synthesis activity in the human HCT-15 cancer cell line following the incorporation of extracellularly administered radiolabeled ^14C acetate with a scintillation proximity based read out on extracted fatty acids.
HCT-15 cells were grown in RPMI 1640 (Gibco) supplemented with 2 mM glutamine, 1 mM sodium pyruvate 10 mM HEPES and 10 % FCS (heat-inactivated) passaged every 2-3 days to remain a subconfluent, vital culture. A working cell bank was prepared with each aliquot containing 1x10^7 viable cells. After thawing, these cells are dilute immediately 1:20 in pre-warmed (37° C.) culture medium. Cells are collected by centrifugation at 200 x g for 5 min, and the supernatant is replaced by 30 mL of fresh culture medium per aliquot to obtain a cell suspension containing 350000 cells/ml. From this cell suspension 100 µL are dispersed into each well of a collagen coated 96 well plate, (black, clear bottom, PS, F-bottom, Greiner) and culture for 24 h (37° C., 5% CO2). After incubation the culture medium is removed and the wells are washed once with 100 µL PBS++ (supplemented with Mg^2+/ Ca^2+, Gibco) and 50 µL assay medium (RPMI 1640 + 10 mM HEPES) are added to each well. Compounds serial dilutions are prepared from 10 mM stock solutions in DMSO using a fixed dilution factor (usually 1:3). After preparation of the dilution series in DMSO, the individual dilutions are further diluted in the assay medium. This working dilution is prepared such, that the concentration is 7x of the final concentration in the assay. The maximal DMSO concentration in the final assay is 0.1%.
To each well 10 µL compound working dilution or DMSO blank are added and the cells are cultured for 2 h (37° C., 5% CO2). Then 10 µL AlamarBlue reagent (Invitrogen) containing 14 µCi/mL ^14C-acetate (Perkin Elmer) are added to each well (70 µl total volume) and cells are again cultured for 2 h. Cell viability is verified by measuring the AlamarBlue fluorescence (Tecan Safire, ex: 544 nm / em: 590 nm). After incubation the culture medium is removed and the wells are carefully washed once with cold 100 µL PBS++. For cell lysis and fatty acid recovery 50 µl 0.1 M NaOH and 0.1 % Triton-X100 are added per well. The plate is sealed with PlateLoc (clear peelable heat seal, Agilent) and incubate at 70° C. for 16-24 h. After cooling to room temperature, the plates are centrifuged for 1 min at 1000 rpm and the plate seals are removed. For acidification 150 µL 0.1 M HCl are added to each well, mixed and 150 µL of the mixture are transferred into a 96 well FlashPlate (Perkin Elmer). The plates are sealed with TopSeaI-a (Perkin Elmer). To allow for the fatty acid binding to the well surfaces the plates are incubate for 4 h at 70° C. After cooling to room temperature, the plates are centrifuged for 1 min at 1000 rpm and stored for 0.5-2 h at room temperature in the dark. Radioactivity from ^14C incorporation into fatty acids in the wells is measured as CPM count in a MicroBeta scintillation counter (Perkin Elmer).

ACSS2 [2] = target: T1, ACSS2; assay: Cellular assay of 14C acetate incorporation into histones (IC50 ACSS2 cellular histone); assay type: cell-based; conditions: HCT-15 cells
How it was run: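 Human HCT-15 cells preincubated 1 h with compound (0.25% DMSO final), then pulsed 3 h with 14C-acetate. Histones were acid-extracted (0.2 M HCl, overnight, 4° C) after Triton lysis in sodium-butyrate buffer; incorporated 14C counted by liquid scintillation (CPM) to give IC50.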

human rec ACSS2 = target: T2, human rec ACSS2 (Homo sapiens, UniProt Q9NR19); assay: Biochemical activity ACSS2 assay (AMP-Glo); conditions: human recombinant ACSS2, AMP-Glo, 180 min at 37° C.
T2 construct: myc (C); purchased Origene
T2 sequence (Q9NR19 whole entry): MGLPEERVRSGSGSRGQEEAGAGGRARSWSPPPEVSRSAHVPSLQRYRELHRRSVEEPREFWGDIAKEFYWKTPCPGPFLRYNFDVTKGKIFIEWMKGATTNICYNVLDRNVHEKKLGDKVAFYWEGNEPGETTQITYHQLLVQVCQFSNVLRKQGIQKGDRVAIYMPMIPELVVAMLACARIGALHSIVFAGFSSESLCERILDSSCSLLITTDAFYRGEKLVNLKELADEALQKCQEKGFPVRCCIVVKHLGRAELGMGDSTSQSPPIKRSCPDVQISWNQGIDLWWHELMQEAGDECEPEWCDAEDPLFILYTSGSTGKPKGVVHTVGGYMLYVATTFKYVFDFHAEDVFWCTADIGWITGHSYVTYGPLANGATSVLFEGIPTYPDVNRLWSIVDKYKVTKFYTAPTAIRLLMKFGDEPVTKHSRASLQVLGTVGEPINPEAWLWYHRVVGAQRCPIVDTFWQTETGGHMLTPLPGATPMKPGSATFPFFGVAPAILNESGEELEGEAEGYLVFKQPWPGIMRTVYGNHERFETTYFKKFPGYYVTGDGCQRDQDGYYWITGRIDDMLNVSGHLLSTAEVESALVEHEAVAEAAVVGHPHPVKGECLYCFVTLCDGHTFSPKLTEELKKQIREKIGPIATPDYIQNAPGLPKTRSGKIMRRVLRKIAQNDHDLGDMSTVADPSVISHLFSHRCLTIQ
How it was run: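 C-terminal myc-tagged human recombinant ACSS2 (1 nM) reacted with 100 µM ATP, 100 µM CoA and 500 µM acetate (final) in pH 7.5 Hepes buffer for 180 min at 37° C, compound in 10 concentrations from 30 µM. Released AMP detected by AMP-Glo luminescence. IC50 normalised to inhibitor-free reaction and 5 µM reference inhibitor.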

T1 sequence (Q9NR19 whole entry): as above

| SMILES | IC50 (ACSS2 [1]) [nM] | IC50 (ACSS2 [2]) [nM] | IC50 (human rec ACSS2) [nM] |
| --- | --- | --- | --- |
| CCn1cnc(NC(=O)c2cc3c(nc2OC)nc(C(O)(c2ccccc2)c2cccs2)n3CC)n1 (racemic) [Compound 47, 1-ethyl-N-(1-ethyl-1H-1,2,4-triazol-3-yl)-2-[hydroxy(phenyl)(thiophen-2-yl)methyl]-5-methoxy-1H-imidazo[4,5-b]pyridine-6-carboxamide] | 10 to 100 | 0.01 to 1 | 1 to 10 |
| CCn1c(C(O)(c2ccccc2)c2ccccn2)nc2nc(OC)c(C(=O)Nc3ncn(CCOC)n3)cc21 (racemic) [Compound 65, 1-ethyl-2-[hydroxy(phenyl)(pyridin-2-yl)methyl]-5-methoxy-N-[1-(2-methoxyethyl)-1H-1,2,4-triazol-3-yl]-1H-imidazo[4,5-b]pyridine-6-carboxamide] | 10 to 100 | 1 to 10 | 100 to 10000 |
| CCn1cnc(NC(=O)c2cc3c(nc2OC)nc(C(O)(c2ccccc2)c2ccccn2)n3CC)n1 (racemic) [Compound 69, 1-ethyl-N-(1-ethyl-1H-1,2,4-triazol-3-yl)-2-[hydroxy(phenyl)(pyridin-2-yl)methyl]-5-methoxy-1H-imidazo[4,5-b]pyridine-6-carboxamide] | 1 to 10 | 0.01 to 1 | 1 to 10 |
| CCc1c(C(O)(c2ccccc2F)c2ccccc2F)nn2cc(Cl)c(C(=O)Nc3cnn(CC)c3)cc12 [Compound 12, 2-[Bis-(2-fluoro-phenyl)-hydroxy-methyl]-6-chloro-3-ethyl-pyrazolo[1,5-a]pyridine-5-carboxylic acid (1-ethyl-1H-pyrazol-4-yl)-amide] | 1 to 10 | 1 to 10 | 1 to 10 |
| CCn1c(C(O)(c2ccccc2)c2ccccc2)nc2nc(OC)c(C(=O)Nc3ncn(CCN)n3)cc21 [Compound 46, N-[1-(2-aminoethyl)-1H-1,2,4-triazol-3-yl]-1-ethyl-2-(hydroxydiphenylmethyl)-5-methoxy-1H-imidazo[4,5-b]pyridine-6-carboxamide] | 100 to 10000 | 100 to 10000 | 10 to 100 |
| CCn1cnc(NC(=O)c2cc3c(nc2OC)nc(C(O)(c2ccccc2)c2ccccc2)n3CCO)n1 [Compound 50, N-(1-ethyl-1H-1,2,4-triazol-3-yl)-2-(hydroxydiphenylmethyl)-1-(2-hydroxyethyl)-5-methoxy-1H-imidazo[4,5-b]pyridine-6-carboxamide] | 100 to 10000 | 1 to 10 | 1 to 10 |
| CCc1cnc(NC(=O)c2cc3c(nc2OC)nc(C(O)(c2ccccc2)c2ccccc2)n3CC)o1 [Compound 60, 1-ethyl-N-(5-ethyl-1,3-oxazol-2-yl)-2-(hydroxydiphenylmethyl)-5-methoxy-1H-imidazo[4,5-b]pyridine-6-carboxamide] | 1 to 10 | 0.01 to 1 | 0.01 to 1 |
| CCc1nnc(CNC(=O)c2cc3c(nc2OC)nc(C(O)(c2ccccc2)c2ccccc2)n3CC)o1 [Compound 62, 1-ethylN-[(5-ethyl-1,30,4-oxadiazol-2-yl)methyl]-2-(hydroxydiphenylmethyl)-5-methoxy-1H-imidazo[4,5-b]pyridine-6-carboxamide] | 1 to 10 | 10 to 100 | 10 to 100 |
| CCn1c(C(O)(c2ccccc2)c2ccccc2)nc2nc(Cl)c(C(=O)Nc3cnn(CCO)c3)cc21 [Compound 66, 5-chloro-1-ethyl-2-(hydroxydiphenylmethyl)-N-[1-(2-hydroxyethyl)-1H-pyrazol-4-yl]-1H-imidazo[4,5-b]pyridine-6-carboxamide] | 1 to 10 | 10 to 100 | 100 to 10000 |
| CCn1c(C(O)(c2ccccc2)c2ccccc2)nc2nc(OC)c(C(=O)Nc3ncn(CCOC)n3)cc21 [Compound 68, 1-ethyl-2-(hydroxydiphenylmethyl)-5-methoxy-N-[1-(2-methoxyethyl)-1H-1,2,4-triazol-3-yl]-1H-imidazo[4,5-b]pyridine-6-carboxamide] | 100 to 10000 | 10 to 100 | 10 to 100 |
| CCn1c(C(O)(c2ccccc2)c2ccccc2)nc2nc(OC)c(C(=O)Nc3ncn(CCO)n3)cc21 [Compound 73, 1-ethyl-2-(hydroxydiphenylmethyl)-N-[1-(2-hydroxyethyl)-1H-1,2,4-triazol-3-yl]-5-methoxy-1H-imidazo[4,5-b]pyridine-6-carboxamide] | 10 to 100 | 10 to 100 | 1 to 10 |
| CCn1cnc(NC(=O)c2cc3c(nc2OC)nc(C(O)(c2ccccc2)c2ccccc2)n3CC)c1 [Compound 76, 1-ethyl-N-(1-ethyl-1H-imidazol-4-yl)-2-(hydroxydiphenylmethyl)-5-methoxy-1H-imidazo[4,5-b]pyridine-6-carboxamide] | 1 to 10 | 1 to 10 | 1 to 10 |
| CCn1ccc(NC(=O)c2cc3c(nc2Cl)nc(C(O)(c2ccccc2)c2ccccc2)n3CC)n1 [Compound 83, 5-chloro-1-ethyl-N-(1-ethyl-1H-pyrazol-3-yl)-2-(hydroxydiphenylmethyl)-1H-imidazo[4,5-b]pyridine-6-carboxamide] | 1 to 10 | 0.01 to 1 | 1 to 10 |

More lines, now with the values ahead:

| IC50 (ACSS2 [1]) [nM] | IC50 (ACSS2 [2]) [nM] | IC50 (human rec ACSS2) [nM] | SMILES |
| --- | --- | --- | --- |
| 1 to 10 | 0.01 to 1 | 1 to 10 | CCn1cnc(NC(=O)c2cc3c(nc2OC)nc(C(O)(c2ccccc2)c2ccc(C)s2)n3CC)n1 (racemic) [Compound 51, 1-ethyl-N-(1-ethyl-1H-1,2,4-triazol-3-yl)-2-[hydroxy(5-methylthiophen-2-yl)phenylmethyl]-5-methoxy-1H-imidazo[4,5-b]pyridine-6-carboxamide] |
| 0.01 to 1 | 10 to 100 | 10 to 100 | CCn1c(C(O)(c2ccccc2)c2ccccn2)nc2nc(OC)c(C(=O)Nc3ncn(CCO)n3)cc21 (racemic) [Compound 61, 1-ethyl-2-[hydroxy(phenyl)(pyridin-2-yl)methyl]-N-[1-(2-hydroxyethyl)-1H-1,2,4-triazol-3-yl]-5-methoxy-1H-imidazo[4,5-b]pyridine-6-carboxamide] |
| 0.01 to 1 | 1 to 10 | 0.01 to 1 | CCn1cnc(NC(=O)c2cc3c(nc2OC)nc(C(O)(c2ccc(OC(F)F)cc2)c2ccccc2F)n3CC)n1 (single isomer, unassigned) [Compound 75] |
| 0.01 to 1 | 0.01 to 1 | 1 to 10 | CCn1cnc(NC(=O)c2cc3c(nc2OC)nc(C(O)(c2cccs2)c2cccs2)n3CC)n1 [Compound 55, 1-ethyl-N-(1-ethyl-1H-1,2,4-triazol-3-yl)-2-[hydroxybis(thiophen-2-yl)methyl]-5-methoxy-1H-imidazo[4,5-b]pyridine-6-carboxamide] |
| 0.01 to 1 | 0.01 to 1 | 1 to 10 | CCc1coc(NC(=O)c2cc3c(nc2OC)nc(C(O)(c2ccccc2)c2ccccc2)n3CC)n1 [Compound 59, 1-ethyl-N-(4-ethyl-1,3-oxazol-2-yl)-2-(hydroxydiphenylmethyl)-5-methoxy-1H-imidazo[4,5-b]pyridine-6-carboxamide] |
| 0.01 to 1 | 10 to 100 | 0.01 to 1 | CCc1nnc(NC(=O)c2cc3c(nc2OC)nc(C(O)(c2ccccc2)c2ccccc2)n3CC)o1 [Compound 64, 1-ethyl-N-(5-ethyl-1,30,4-oxadiazol-2-yl)-2-(hydroxydiphenylmethyl)-5-methoxy-1H-imidazo[4,5-b]pyridine-6-carboxamide] |

— patent US20230271956A1, “AMIDE DERIVATIVES” (Merck Patent GmbH, priority 2020, published 2023)
